Columns and labels:
Assay type in all cases: biochemical
Conditions in all cases: for inhibition at 1 µM: compound at 1 μM
AURORA-A = target: T1, AURORA-A (Homo sapiens, UniProt O14965); experiment: Nanosyn in vitro kinase profiling: AURORA-A
T1 sequence (O14965 1-403): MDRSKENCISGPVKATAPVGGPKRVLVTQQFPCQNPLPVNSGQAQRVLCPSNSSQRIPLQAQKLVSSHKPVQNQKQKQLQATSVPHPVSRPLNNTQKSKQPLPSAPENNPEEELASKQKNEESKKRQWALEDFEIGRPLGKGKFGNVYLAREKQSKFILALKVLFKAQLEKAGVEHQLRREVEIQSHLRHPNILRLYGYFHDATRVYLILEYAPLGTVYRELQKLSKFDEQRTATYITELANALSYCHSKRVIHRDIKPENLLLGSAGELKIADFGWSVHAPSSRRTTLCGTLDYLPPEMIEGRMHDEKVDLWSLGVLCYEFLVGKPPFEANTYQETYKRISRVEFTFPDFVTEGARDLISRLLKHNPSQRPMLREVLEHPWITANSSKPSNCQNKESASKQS
Method: (§1) This was confirmed by in vitro profiling against a panel of kinases, with compound 2 only showing potent inhibition of EGFR and Ab1 (Table 2).
(§2) In vitro Kinome Screen. In vitro profiling of compound 2 at 100 nM was conducted by Nanosyn.

MAP4K4 = MAP4K4 (Homo sapiens, UniProt O95819); experiment: Nanosyn in vitro kinase profiling: MAP4K4
Method: as §1, §2

PAK2 = PAK2 (Homo sapiens, UniProt Q13177); experiment: Nanosyn in vitro kinase profiling: PAK2
Method: as §1, §2

ABL1 = ABL1 (Homo sapiens, UniProt P00519); experiment: Nanosyn in vitro kinase profiling: ABL1
Method: as §1, §2

DYRK1A = DYRK1A (Homo sapiens, UniProt Q13627); experiment: Nanosyn in vitro kinase profiling: DYRK1A
Method: as §1, §2

MAPKAPK-2 = MAPKAPK-2 (Homo sapiens, UniProt P49137); experiment: Nanosyn in vitro kinase profiling: MAPKAPK-2
Method: as §1, §2

FLT-3 = target: T2, FLT-3 (Homo sapiens, UniProt P36888); experiment: Nanosyn in vitro kinase profiling: FLT-3
T2 sequence (P36888 27-993): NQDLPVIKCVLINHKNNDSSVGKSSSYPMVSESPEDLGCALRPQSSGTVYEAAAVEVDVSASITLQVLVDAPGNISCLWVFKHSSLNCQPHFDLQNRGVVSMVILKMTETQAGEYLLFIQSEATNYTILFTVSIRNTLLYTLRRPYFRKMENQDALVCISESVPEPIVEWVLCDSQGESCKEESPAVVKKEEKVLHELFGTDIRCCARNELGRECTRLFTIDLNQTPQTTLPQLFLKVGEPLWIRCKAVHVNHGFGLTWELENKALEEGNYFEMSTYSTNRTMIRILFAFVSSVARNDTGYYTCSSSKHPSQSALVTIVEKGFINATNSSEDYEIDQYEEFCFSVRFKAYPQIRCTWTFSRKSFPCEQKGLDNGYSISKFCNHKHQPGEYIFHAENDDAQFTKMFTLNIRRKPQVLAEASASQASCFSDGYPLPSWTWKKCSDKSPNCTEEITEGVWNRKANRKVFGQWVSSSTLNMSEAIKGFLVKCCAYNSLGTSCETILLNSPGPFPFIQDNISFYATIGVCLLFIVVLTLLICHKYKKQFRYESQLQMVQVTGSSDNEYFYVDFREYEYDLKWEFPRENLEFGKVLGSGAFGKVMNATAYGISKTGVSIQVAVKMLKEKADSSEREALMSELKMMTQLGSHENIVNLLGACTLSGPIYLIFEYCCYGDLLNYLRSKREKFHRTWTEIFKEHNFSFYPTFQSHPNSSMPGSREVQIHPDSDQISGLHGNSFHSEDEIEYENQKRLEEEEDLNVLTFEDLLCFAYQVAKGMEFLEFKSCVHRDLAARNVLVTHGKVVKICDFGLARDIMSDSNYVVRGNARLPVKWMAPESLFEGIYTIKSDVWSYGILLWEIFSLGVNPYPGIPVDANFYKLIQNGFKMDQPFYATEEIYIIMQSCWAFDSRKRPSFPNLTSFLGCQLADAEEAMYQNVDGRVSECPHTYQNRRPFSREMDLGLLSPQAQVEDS
Method: as §1, §2

GSK-3-BETA = GSK-3-BETA (Homo sapiens, UniProt P49841); experiment: Nanosyn in vitro kinase profiling: GSK-3-BETA
Method: as §1, §2

KDR = KDR (Homo sapiens, UniProt P35968); experiment: Nanosyn in vitro kinase profiling: KDR
Method: as §1, §2

MET = MET (Homo sapiens, UniProt P08581); experiment: Nanosyn in vitro kinase profiling: MET
Method: as §1, §2

EGFR = EGFR (Homo sapiens, UniProt P00533); experiment: Nanosyn in vitro kinase profiling: EGFR
Method: as §1, §2

DAPK1 = DAPK1 (Homo sapiens, UniProt P53355); experiment: Nanosyn in vitro kinase profiling: DAPK1
Method: as §1, §2

PDGFR-ALPHA = PDGFR-ALPHA (Homo sapiens, UniProt P16234); experiment: Nanosyn in vitro kinase profiling: PDGFR-ALPHA
Method: as §1, §2

EPH-A2 = EPH-A2 (Homo sapiens, UniProt P29317); experiment: Nanosyn in vitro kinase profiling: EPH-A2
Method: as §1, §2

Sequence of PDGFR-ALPHA (P16234 24-1089, species assumed): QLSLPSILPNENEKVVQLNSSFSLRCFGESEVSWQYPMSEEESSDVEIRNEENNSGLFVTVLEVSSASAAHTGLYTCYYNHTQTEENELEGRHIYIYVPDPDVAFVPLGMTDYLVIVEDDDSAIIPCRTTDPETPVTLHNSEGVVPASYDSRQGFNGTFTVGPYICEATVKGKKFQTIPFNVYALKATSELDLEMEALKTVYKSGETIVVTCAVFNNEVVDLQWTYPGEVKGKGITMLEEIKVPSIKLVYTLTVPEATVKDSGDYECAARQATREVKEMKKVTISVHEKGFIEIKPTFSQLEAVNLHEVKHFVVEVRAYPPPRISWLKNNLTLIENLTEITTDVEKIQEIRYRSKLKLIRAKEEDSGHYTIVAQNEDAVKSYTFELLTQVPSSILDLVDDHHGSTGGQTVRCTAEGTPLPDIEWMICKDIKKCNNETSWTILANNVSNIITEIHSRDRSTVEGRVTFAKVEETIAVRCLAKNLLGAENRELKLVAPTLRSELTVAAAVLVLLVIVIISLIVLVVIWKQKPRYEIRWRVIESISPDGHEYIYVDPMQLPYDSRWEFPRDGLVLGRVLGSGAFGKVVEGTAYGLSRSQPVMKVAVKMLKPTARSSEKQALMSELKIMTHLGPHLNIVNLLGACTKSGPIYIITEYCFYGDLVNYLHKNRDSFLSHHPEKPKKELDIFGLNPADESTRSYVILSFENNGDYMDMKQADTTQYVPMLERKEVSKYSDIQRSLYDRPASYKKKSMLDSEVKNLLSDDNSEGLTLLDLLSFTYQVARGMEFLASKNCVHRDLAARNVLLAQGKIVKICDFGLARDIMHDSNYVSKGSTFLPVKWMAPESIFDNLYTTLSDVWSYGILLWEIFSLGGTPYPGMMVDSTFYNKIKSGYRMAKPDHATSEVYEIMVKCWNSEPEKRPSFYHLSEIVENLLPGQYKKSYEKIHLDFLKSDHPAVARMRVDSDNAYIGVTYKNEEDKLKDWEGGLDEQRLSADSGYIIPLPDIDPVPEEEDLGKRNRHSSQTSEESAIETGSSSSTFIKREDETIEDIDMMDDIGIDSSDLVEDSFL
Sequence of ABL1 (P00519 whole entry): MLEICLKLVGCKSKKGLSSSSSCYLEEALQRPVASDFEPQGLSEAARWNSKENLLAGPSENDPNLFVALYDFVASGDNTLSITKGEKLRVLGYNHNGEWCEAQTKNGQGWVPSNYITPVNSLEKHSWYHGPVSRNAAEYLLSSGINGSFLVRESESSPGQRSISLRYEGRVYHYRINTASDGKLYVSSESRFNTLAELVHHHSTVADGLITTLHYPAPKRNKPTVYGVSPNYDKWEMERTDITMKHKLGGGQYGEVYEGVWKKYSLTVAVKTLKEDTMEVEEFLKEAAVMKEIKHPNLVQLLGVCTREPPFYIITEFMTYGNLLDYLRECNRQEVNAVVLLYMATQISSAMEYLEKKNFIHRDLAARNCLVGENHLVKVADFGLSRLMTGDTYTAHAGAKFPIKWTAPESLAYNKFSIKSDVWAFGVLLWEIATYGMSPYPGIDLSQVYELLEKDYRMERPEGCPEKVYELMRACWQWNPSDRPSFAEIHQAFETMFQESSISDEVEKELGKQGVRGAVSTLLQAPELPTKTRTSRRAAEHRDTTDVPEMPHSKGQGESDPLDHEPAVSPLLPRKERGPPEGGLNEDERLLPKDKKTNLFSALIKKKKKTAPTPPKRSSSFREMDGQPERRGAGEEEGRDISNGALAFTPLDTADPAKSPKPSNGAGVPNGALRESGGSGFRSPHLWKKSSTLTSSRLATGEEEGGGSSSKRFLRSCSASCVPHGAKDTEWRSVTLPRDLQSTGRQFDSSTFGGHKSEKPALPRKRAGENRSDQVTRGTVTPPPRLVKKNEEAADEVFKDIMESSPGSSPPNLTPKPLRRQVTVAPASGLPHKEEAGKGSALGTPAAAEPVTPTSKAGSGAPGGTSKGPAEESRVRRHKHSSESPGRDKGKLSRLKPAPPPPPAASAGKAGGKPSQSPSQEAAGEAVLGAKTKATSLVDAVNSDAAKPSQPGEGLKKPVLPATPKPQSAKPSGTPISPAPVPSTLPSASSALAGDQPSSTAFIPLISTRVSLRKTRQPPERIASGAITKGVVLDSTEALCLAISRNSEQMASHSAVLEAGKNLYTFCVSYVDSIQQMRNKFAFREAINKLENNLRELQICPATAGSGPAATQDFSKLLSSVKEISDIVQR
Sequence of EPH-A2 (P29317 24-976, species assumed): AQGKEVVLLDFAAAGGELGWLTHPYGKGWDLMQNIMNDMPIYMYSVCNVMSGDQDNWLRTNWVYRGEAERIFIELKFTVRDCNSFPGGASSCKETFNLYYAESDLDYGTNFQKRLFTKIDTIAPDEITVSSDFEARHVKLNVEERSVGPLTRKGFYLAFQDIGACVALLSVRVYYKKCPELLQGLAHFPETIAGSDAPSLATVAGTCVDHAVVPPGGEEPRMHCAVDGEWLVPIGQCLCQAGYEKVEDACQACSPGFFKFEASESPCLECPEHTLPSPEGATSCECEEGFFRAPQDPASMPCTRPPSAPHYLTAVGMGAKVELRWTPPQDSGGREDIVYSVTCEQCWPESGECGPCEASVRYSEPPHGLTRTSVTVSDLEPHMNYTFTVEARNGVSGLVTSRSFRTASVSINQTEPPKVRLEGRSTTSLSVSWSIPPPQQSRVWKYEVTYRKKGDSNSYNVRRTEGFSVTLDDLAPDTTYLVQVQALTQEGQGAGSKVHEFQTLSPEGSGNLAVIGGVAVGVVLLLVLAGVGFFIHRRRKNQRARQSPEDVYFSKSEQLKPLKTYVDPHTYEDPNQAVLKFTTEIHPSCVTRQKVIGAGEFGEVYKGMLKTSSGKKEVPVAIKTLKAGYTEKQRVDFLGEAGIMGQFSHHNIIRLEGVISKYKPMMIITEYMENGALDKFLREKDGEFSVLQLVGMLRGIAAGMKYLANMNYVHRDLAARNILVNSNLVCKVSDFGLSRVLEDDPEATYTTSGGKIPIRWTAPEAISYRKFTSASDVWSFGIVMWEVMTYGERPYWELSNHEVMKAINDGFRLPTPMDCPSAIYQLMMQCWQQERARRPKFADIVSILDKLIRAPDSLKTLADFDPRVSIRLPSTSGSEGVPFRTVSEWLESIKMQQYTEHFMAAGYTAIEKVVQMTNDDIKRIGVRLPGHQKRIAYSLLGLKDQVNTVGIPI
Sequence of MET (P08581 25-1390): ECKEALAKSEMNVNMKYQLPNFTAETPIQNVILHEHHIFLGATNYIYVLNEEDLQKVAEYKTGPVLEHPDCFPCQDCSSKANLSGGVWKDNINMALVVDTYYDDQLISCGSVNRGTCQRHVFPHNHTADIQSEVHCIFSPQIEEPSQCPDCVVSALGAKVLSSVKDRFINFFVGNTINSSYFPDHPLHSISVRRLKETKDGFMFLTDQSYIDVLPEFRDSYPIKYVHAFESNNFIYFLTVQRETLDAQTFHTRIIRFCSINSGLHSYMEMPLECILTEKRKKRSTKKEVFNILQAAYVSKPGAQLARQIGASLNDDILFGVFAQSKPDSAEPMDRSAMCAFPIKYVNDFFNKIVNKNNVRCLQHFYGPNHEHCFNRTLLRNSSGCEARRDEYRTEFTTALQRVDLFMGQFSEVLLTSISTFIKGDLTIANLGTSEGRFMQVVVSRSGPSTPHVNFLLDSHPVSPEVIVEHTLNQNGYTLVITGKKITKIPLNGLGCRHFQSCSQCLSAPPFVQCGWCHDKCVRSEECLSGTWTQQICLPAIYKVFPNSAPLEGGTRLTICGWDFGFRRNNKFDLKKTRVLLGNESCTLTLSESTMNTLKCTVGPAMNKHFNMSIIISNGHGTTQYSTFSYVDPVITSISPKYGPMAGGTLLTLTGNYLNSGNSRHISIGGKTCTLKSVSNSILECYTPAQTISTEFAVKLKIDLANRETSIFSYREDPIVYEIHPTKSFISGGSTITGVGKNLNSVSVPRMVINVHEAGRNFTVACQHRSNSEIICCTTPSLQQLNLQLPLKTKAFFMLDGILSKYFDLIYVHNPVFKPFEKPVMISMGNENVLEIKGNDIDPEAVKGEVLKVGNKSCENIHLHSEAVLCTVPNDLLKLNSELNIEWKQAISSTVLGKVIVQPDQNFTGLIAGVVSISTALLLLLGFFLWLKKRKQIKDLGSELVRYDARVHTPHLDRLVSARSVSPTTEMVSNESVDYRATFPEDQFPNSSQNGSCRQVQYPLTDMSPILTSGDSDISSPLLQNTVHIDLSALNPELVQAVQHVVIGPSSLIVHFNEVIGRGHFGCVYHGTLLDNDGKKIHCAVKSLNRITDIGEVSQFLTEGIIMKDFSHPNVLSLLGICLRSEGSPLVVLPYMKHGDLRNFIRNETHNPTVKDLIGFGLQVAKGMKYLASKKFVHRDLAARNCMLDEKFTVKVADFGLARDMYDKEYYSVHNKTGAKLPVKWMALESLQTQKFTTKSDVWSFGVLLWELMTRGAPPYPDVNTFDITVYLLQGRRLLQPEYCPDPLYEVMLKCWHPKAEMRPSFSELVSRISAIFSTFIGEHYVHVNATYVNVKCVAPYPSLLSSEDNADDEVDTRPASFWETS
Sequence of MAPKAPK-2 (P49137 whole entry, species assumed): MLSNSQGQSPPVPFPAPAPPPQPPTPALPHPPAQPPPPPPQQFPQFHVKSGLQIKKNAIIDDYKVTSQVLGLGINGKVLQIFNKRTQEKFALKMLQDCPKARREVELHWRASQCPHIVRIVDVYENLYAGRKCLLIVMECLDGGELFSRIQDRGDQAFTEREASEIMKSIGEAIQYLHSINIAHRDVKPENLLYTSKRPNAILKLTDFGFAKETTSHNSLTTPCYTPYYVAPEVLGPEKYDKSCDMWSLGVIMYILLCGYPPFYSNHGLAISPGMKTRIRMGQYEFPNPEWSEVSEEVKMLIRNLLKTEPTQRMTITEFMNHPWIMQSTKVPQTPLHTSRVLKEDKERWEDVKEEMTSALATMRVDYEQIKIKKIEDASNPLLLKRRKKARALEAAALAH

inhibition at 1 µM (AURORA-A) [%]	inhibition at 1 µM (MAP4K4) [%]	inhibition at 1 µM (PAK2) [%]	inhibition at 1 µM (ABL1) [%]	inhibition at 1 µM (DYRK1A) [%]	inhibition at 1 µM (MAPKAPK-2) [%]	inhibition at 1 µM (FLT-3) [%]	inhibition at 1 µM (GSK-3-BETA) [%]	inhibition at 1 µM (KDR) [%]	inhibition at 1 µM (MET) [%]	inhibition at 1 µM (EGFR) [%]	inhibition at 1 µM (DAPK1) [%]	inhibition at 1 µM (PDGFR-ALPHA) [%]	inhibition at 1 µM (EPH-A2) [%]	SMILES	other results
31	100	3	98	41	-6	78	40	74	16	99	-1	66	28	COc1ccc(-c2ccoc2)cc1Nc1ncnc2[nH]cc(-c3cc[nH]n3)c12 [compound 3, N-(5-(furan-3-yl)-2-methoxyphenyl)-5-(1H-pyrazol-3-yl)-7H-pyrrolo[2,3-d]pyrimidin-4-amine]	
47.2	78.7	1.07	97.2	16.7	0.575	89.4	68.8	71.3	10.1	96.9	1.43	52.5	21	COc1ccc(-c2ccco2)cc1Nc1ncnc2[nH]nc(-c3ccco3)c12 [compound 2, 3-(furan-2-yl)-N-(5-(furan-2-yl)-2-methoxyphenyl)-1H-pyrazolo[3,4-d]pyrimidin-4-amine]	inhibition at 0.1 µM (AURORA-A; compound at 100 nM): 9.95%; inhibition at 0.1 µM (MAP4K4; compound at 100 nM): 36.5%; inhibition at 0.1 µM (PAK2; compound at 100 nM): 0.085%; inhibition at 0.1 µM (ABL1; compound at 100 nM): 95.2%; inhibition at 0.1 µM (DYRK1A; compound at 100 nM): 5%; inhibition at 0.1 µM (MAPKAPK-2; compound at 100 nM): 0.12%; inhibition at 0.1 µM (FLT-3; compound at 100 nM): 60%; inhibition at 0.1 µM (GSK-3-BETA; compound at 100 nM): 20.5%; inhibition at 0.1 µM (KDR; compound at 100 nM): 27.3%; inhibition at 0.1 µM (MET; compound at 100 nM): 2.04%; inhibition at 0.1 µM (EGFR; compound at 100 nM): 95.6%; inhibition at 0.1 µM (DAPK1; compound at 100 nM): -0.52%; inhibition at 0.1 µM (PDGFR-ALPHA; compound at 100 nM): 11.8%; inhibition at 0.1 µM (EPH-A2; compound at 100 nM): 2.42%
